According to patent publication US10501461B2, “Tyrosine amide derivatives as Rho-kinase inhibitors” (CHIESI FARMACEUTICI S.P.A., priority 2017, dated 2019):

How the values were obtained:
Rho kinase 2 (ROCK-II) = Rho kinase 2 (ROCK-II) (Homo sapiens, UniProt O75116); assay: In vitro Rho kinase inhibitory activity assay (ADP-Glo), Rho kinase 2; format: biochemical; details: 10 μM ATP, 25° C., expressed as range of activity
Outline: (§1)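 ADP-Glo luminescence read-out. Enzyme (ROCK1 or ROCK2) + compound 30 min, then 10 μM ATP final, 1 h, 25 °C; 2.5 μM MBP peptide substrate, Tris pH7.5/MgCl2/BSA/DTT buffer, 1% DMSO. IC50 from variable-slope fit (0–100% fixed); Ki via Cheng-Prusoff.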

Rho kinase 1 (ROCK-I) = Rho kinase 1 (ROCK-I) (Homo sapiens, UniProt Q13464); assay: In vitro Rho kinase inhibitory activity assay (ADP-Glo), Rho kinase 1; format: biochemical; details: 10 μM ATP, 25° C., expressed as range of activity
Outline: as §1

Rho kinase 2 (ROCK-II), sequence (O75116 whole entry): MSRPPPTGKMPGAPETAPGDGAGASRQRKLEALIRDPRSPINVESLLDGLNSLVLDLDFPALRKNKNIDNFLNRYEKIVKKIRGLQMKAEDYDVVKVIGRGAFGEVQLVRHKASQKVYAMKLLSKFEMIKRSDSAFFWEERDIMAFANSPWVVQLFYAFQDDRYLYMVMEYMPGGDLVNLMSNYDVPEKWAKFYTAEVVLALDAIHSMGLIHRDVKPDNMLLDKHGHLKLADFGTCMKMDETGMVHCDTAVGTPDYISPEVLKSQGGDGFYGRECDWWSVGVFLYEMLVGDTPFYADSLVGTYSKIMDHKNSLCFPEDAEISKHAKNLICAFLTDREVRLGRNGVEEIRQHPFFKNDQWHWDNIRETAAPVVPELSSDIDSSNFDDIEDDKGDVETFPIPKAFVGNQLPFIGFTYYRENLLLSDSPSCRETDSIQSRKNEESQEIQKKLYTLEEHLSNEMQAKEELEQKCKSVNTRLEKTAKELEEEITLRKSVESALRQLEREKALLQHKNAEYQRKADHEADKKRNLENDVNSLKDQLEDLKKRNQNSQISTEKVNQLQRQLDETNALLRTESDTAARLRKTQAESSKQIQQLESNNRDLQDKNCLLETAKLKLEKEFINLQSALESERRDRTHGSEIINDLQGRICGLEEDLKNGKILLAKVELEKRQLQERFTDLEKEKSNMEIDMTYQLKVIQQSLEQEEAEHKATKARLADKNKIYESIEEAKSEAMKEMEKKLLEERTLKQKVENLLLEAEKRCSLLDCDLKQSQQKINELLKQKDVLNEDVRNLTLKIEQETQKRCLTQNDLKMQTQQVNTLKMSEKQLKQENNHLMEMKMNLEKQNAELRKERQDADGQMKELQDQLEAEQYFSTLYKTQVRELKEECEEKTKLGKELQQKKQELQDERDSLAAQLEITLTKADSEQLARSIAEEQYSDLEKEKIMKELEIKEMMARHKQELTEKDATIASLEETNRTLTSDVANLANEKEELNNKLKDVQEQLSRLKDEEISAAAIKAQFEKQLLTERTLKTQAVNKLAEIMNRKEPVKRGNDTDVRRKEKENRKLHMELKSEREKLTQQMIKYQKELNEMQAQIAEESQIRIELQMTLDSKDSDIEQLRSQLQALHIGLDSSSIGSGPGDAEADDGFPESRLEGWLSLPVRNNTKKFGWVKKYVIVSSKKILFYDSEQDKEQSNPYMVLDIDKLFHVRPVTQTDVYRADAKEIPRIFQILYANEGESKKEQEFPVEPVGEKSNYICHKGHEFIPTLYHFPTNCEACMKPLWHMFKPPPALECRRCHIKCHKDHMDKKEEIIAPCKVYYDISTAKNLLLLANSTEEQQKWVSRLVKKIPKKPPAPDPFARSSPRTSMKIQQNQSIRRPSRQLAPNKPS
Rho kinase 1 (ROCK-I), sequence (Q13464 whole entry): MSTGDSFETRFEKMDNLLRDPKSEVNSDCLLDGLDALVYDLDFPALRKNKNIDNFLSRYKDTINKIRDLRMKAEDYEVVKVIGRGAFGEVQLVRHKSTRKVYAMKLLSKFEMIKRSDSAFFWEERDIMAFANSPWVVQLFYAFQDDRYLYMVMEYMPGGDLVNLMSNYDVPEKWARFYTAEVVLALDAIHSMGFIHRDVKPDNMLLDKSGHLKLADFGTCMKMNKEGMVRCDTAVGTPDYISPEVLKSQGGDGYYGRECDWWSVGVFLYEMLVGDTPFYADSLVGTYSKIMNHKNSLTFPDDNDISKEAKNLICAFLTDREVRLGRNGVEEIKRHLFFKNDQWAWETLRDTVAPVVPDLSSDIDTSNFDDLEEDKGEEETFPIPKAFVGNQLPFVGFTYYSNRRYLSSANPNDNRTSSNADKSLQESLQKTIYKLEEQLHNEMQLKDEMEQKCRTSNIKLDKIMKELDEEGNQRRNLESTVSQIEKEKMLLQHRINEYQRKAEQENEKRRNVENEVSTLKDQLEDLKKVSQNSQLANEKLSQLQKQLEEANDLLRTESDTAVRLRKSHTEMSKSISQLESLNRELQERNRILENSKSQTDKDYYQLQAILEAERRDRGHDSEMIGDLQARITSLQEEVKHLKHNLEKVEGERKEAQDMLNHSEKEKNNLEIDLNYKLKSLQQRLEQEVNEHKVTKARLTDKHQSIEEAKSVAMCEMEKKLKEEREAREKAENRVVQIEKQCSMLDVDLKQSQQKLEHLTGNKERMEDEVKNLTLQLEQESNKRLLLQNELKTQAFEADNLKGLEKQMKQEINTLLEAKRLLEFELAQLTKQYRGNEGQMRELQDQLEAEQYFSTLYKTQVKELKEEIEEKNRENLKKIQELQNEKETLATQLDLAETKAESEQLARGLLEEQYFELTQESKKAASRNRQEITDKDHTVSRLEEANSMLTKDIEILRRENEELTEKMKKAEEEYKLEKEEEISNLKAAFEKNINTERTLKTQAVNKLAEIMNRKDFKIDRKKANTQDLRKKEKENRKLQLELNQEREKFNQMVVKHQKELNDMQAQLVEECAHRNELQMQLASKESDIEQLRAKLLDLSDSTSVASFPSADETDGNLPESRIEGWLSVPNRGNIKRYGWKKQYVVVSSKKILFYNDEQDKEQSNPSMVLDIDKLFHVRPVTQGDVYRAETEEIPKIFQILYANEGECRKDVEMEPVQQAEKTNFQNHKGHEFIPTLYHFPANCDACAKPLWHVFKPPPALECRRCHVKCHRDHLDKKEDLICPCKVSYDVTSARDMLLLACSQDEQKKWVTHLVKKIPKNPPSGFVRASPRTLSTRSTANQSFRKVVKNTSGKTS

Row | Structure (SMILES) | Ki (Rho kinase 2 (ROCK-II)) [nM] | Ki (Rho kinase 1 (ROCK-I)) [nM]
1 | Cc1c[nH]c2nccc(Oc3ccc(C[C@H](N)C(=O)N4CCN(Cc5ccc(OCCCN(C)C)cc5)CC4)cc3F)c12 [Example 160, (S)-2-amino-1-(4-(4-(3-(dimethylamino)propoxy)benzyl)piperazin-1-yl)-3-(3-fluoro-4-((3-methyl-1H-pyrrolo[2,3-b]pyridin-4-yl)oxy)phenyl)propan-1-one] | < 3 | < 3
2 | CN1C[C@@H]2C[C@H]1CN2C(=O)[C@@H](N)Cc1ccc(Oc2ccnc3[nH]cc(CO)c23)c(F)c1 [Example 211, (S)-2-amino-3-(3-fluoro-4-((3-(hydroxymethyl)-1H-pyrrolo[2,3-b]pyridin-4-yl)oxy)phenyl)-1-((1S,4S)-5-methyl-2,5-diazabicyclo[2.2.1]-heptan-2-yl)propan-1-one] | 3 to 30 | 3 to 30
3 | CN(C)CCNC(=O)[C@@H](N)Cc1ccc(Oc2ccnc3[nH]ccc23)cc1 [Example 95, (S)-3-(4-((1H-pyrrolo[2,3-b]pyridin-4-yl)oxy)phenyl)-2-amino-N-(2-(dimethylamino)ethyl)propanamide] | > 30 | > 30
4 | Cc1c[nH]c2nccc(Oc3ccc(C[C@H](N)C(=O)N4CCC(CN(C)C)CC4)cc3F)c12 [Example 45, (S)-2-amino-1-(4-((dimethylamino)methyl)piperidin-1-yl)-3-(3-fluoro-4-((3-methyl-1H-pyrrolo[2,3-b]pyridin-4-yl)oxy)phenyl)propan-1-one] | < 3 | < 3
5 | N[C@@H](Cc1ccc(Oc2ncnc3[nH]ccc23)cc1)C(=O)NC1CCCCC1 [Example 225, (S)-3-(4-((7H-pyrrolo[2,3-d]pyrimidin-4-yl)oxy)phenyl)-2-amino-N-cyclohexylpropanamide] | > 30 | > 30
6 | Cc1c[nH]c2nccc(Oc3ccc(C[C@H](N)C(=O)N4C[C@@H]5C[C@H]4CN5C)cc3F)c12 [Example 25, (S)-2-amino-3-(3-fluoro-4-((3-methyl-1H-pyrrolo[2,3-b]pyridin-4-yl)oxy)phenyl)-1-((1S,4S)-5-methyl-2,5-diazabicyclo[2.2,1]heptan-2-yl)propan-1-one] | < 3 | < 3
7 | Cc1c[nH]c2nccc(Oc3ccc(C[C@H](N)C(=O)N4CCN(C(=O)c5ccc(CN(C)C)cc5)CC4)cc3F)c12 [Example 172, (S)-2-amino-1-(4-(4-((dimethylamino)methyl)benzoyl)piperazin-1-yl)-3-(3-fluoro-4-((3-methyl-1H-pyrrolo[2,3-b]pyridin-4-yl)oxy)phenyl)propan-1-one] | < 3 | < 3
8 | N#Cc1ccc(-c2c[nH]c3nccc(Oc4ccc(C[C@H](N)C(=O)N5CCN(Cc6ccccc6)CC5)cc4)c23)s1 [Example 195, (S)-5-(4-(4-(2-amino-3-(4-benzylpiperazin-1-yl)-3-oxopropyl)phenoxy)-1H-pyrrolo[2,3-b]pyridin-3-yl)thiophene-2-carbonitrile] | < 3 | < 3
9 | Cc1c[nH]c2nccc(Oc3ccc(C[C@H](N)C(=O)NC4(CO)CCCCC4)cc3F)c12 [Example 32, (S)-2-amino-3-(3-fluoro-4-((3-methyl-1H-pyrrolo[2,3-b]pyridin-4-yl)oxy)phenyl)-N-(1-(hydroxymethyl)cyclohexyl)propanamide] | < 3 | < 3
10 | N[C@@H](Cc1ccc(Oc2ccnc3[nH]ccc23)cc1)C(=O)Nc1ccccc1 [Example 109, (S)-3-(4-((1H-pyrrolo[2,3-b]pyridin-4-yl)oxy)phenyl)-2-amino-N-phenylpropanamide] | 3 to 30 | 3 to 30
11 | NC(Cc1ccc(Oc2ccnc3[nH]ccc23)cc1)C(=O)Nc1ccc(C(F)(F)F)cc1 (single isomer, unassigned) [Example 91A, 3-(4-((1H-pyrrolo[2,3-b]pyridin-4-yl)oxy)phenyl)-2-amino-N-(4-(trifluoromethyl)phenyl)propanamide] | < 3 | < 3
12 | Cc1c[nH]c2ncnc(Oc3ccc(C[C@H](N)C(=O)NCCCN(C)C)cc3F)c12 [Example 116, (S)-2-amino-N-(3-(dimethylamino)propyl)-3-(3-fluoro-4-((5-methyl-7H-pyrrolo[2,3-d]pyrimidin-4-yl)oxy)phenyl)propanamide] | 3 to 30 | 3 to 30
13 | Cc1c[nH]c2nccc(Oc3ccc(C[C@H](N)C(=O)N4CCN(Cc5csnn5)CC4)cc3F)c12 [Example 164, (S)-1-(4-((1,2,3-thiadiazol-4-yl)methyl)piperazin-1-yl)-2-amino-3-(3-fluoro-4-((3-methyl-1H-pyrrolo[2,3-b]pyridin-4-yl)oxy)phenyl)propan-1-one] | < 3 | < 3
14 | Cc1c[nH]c2nccc(Oc3ccc(CC(N)C(=O)NCc4cccs4)cc3F)c12 (stereo not drawn) [Example 61, 2-amino-3-(3-fluoro-4-((3-methyl-1H-pyrrolo[2,3-b]pyridin-4-yl)oxy)phenyl)-N-(thiophen-2-ylmethyl)propanamide] | < 3 | < 3
15 | N[C@@H](Cc1ccc(Oc2ccnc3[nH]cc(-c4cncs4)c23)cc1)C(=O)N1CCN(Cc2ccccc2)CC1 [Example 196, (S)-2-amino-1-(4-benzylpiperazin-1-yl)-3-(4-((3-(thiazol-5-yl)-1H-pyrrolo[2,3-b]pyridin-4-yl)oxy)phenyl)propan-1-one] | < 3 | < 3
16 | Cc1c[nH]c2nccc(Oc3ccc(C[C@H](N)C(=O)N4CCN(C(=O)c5cnn(C)c5)CC4)cc3F)c12 [Example 175, (S)-2-amino-3-(3-fluoro-4-((3-methyl-1H-pyrrolo[2,3-b]pyridin-4-yl)oxy)phenyl)-1-(4-(1-methyl-1H-pyrazole-4-carbonyl)piperazin-1-yl)propan-1-one] | < 3 | < 3
17 | N[C@@H](Cc1ccc(Oc2ccnc3[nH]ccc23)cn1)C(=O)N1CCN(Cc2ccccc2)CC1 [Example 228, (S)-3-(5-((1H-pyrrolo[2,3-b]pyridin-4-yl)oxy)pyridin-2-yl)-2-amino-1-(4-benzylpiperazin-1-yl)propan-1-one] | 3 to 30 | > 30
18 | CN(C(=O)[C@H](N)Cc1ccc(Oc2ccnc3[nH]ccc23)cc1)C1CCCCC1 [Example 102, (R)-3-(4-((1H-pyrrolo[2,3-b]pyridin-4-yl)oxy)phenyl)-2-amino-N-eyclohexyl-N-methylpropanamide] | > 30 | > 30
19 | Cc1c[nH]c2nccc(Oc3ccc(C[C@H](N)C(=O)Nc4ccccc4)cc3)c12 [Example 137, (S)-2-amino-3-(4-((3-methyl-1H-pyrrolo[2,3-b]pyridin-4-yl)oxy)phenyl)-N-phenylpropanamide] | < 3 | < 3
20 | Cc1c[nH]c2nccc(Oc3ccc(C[C@H](N)C(=O)N4CCN(c5ccccc5)CC4)cc3F)c12 [Example 5, (S)-2-amino-3-(3-fluoro-4-((3-methyl-1H-pyrrolo[2,3-b]pyridin-4-yl)oxy)phenyl)-1-(4-phenylpiperazin-1-yl)propan-1-one] | < 3 | < 3
21 | N[C@H](Cc1ccc(Oc2ccnc3[nH]ccc23)cc1)C(=O)Nc1ccccc1 [Example 110, (R)-3-(4-((1H-pyrrolo[2,3-b]pyridin-4-yl)oxy)phenyl)-2-amino-N-phenylpropanamide] | 3 to 30 | > 30
